Like-named read-outs stand apart in the source and are kept apart here.
Columns and labels:
left and right testis = test: Mouse study, 10 days oral, testis weight; assay type: in vivo; details: C57B1/6J mice, oral daily for 10 days, 0.2-20 mg/kg
Description: The control mice received an equal amount of the vehicle (carboxymethylcellulose). […] Relative weights of entire prostate and individual lobes were calculated by dividing the corresponding absolute weight by the total weight of the mouse. Relative weights of the entire prostate, the dorsal prostate, and the ventral prostate were calculated by dividing the absolute weight by the total weight of the mouse. Relative weights of the left and right testis were calculated by dividing the corresponding absolute weights by the total weights of the mouse.

PC3 cells = test: Antiproliferation assay 3 days, PC3 cells; assay type: cell-based, human; details: 3 day treatment; read-out: PC-3 cell line IC50
Description: To determine the effect of lonidamine analogs thereof on cell proliferation, the antiproliferative activity of these compounds was tested in a multi-well Alamar Blue based assay (at 3 days). Cell growth in the presence and absence of the test compound was compared, as measured by a fluoresence plate reader at excitation 550 nm and emission 590 nm (see Biosource International Inc., Tech Application Notes, Use of Alamar Blue in the measurement of Cell Viability and Toxity, Determining IC50). The following cell lines were tested: PWR-1E cells ((ATCC CRL-11611), 3500 cells/well/200 μl in Keratinocyte SFM medium (Gibco Products, Invitrogen Corporation, Carlsbad, Calif.)); DU-145 cells ((ATCC HTB-81), 4000 cells/well/200 μl in MEM Eagles medium (ATCC, Manassas, Va.)); PC3 cells ((ATCC CRL-1435), 4000 cells/200 μl in Modified HAM's F12 medium (ATCC, Manassas, Va.)); PNt2 cells ((Sigma-Aldrich, 95012613-1 VL), 4000 cells/well/200 μl in RPMI medium (Gibco Products, Invitrogen Corporation, Carlsbad, Calif.), BPH-1 ((DSMZ ACC-143), 4000 cells/well/200 μl in RPMI medium (Gibco Products, Invitrogen Corporation, Carlsbad, Calif), and NCI-H460 cells ((ATCC HTB-177), 4000 cells/well/200 μl in RPMI medium (Gibco Products, Invitrogen Corporation, Carlsbad, Calif.)). The cells were seeded in a 96 well plate in a medium specified above. After 24 hours, these plates were divided into 2 groups—Control group and 3 day treatment group. A test compound was added to each plate in the treatment groups at concentrations of […] as tabulated in Table 1 (in 2 μl 1 of 100% DMSO, final DMSO concentration 1% in all wells). For NCI-H460 cells, test compounds were added to each plate in the treatment groups at concentrations of 600, 300, 100, 30, 10, 3, and 1 μM (in 2 μl of 100% DMSO, final DMSO concentration 1% in all wells). The cells in the 3 day treatment group were incubated for 3 days, followed by staining with AlamarBlue. In the Control group, AlamarBlue was added to the plate at (i) day 0 and (ii) day 3 and measured to establish the control reading. […] For the NCI-H460 cells, the capacity of the cells to proliferate was measured 5 hours after addition of AlamarBlue using the same fluorescence plate reader as stated above.

H460 cells = test: Antiproliferation assay (Alamar Blue), H460 cells; assay type: cell-based
Description: To determine the effect of lonidamine and analogs thereof on cell proliferation, the antiproliferative activity of these compounds was tested in a multi-well Alamar Blue based assay (at 2 h and 3 days). Cell growth in the presence and absence of the test compound (compounds 1-22) was compared, as measured by a fluorescence plate reader at excitation 550 nm and emission 590 nm (see Biosource International Inc., Tech Application Notes, Use of Alamar Blue in the measurement of Cell Viability and Toxicity, Determining IC50). H460 cells (ATCC HTB-177 ([…]), 4,000 cells/well/200 μl) and LNCap cells (ATCC CRL-1740, 6,000 cells/well/200 μl) were seeded in a 96 well plate in RPMI medium (Invitrogen Corporation, Carlsbad, Calif.). After 24 hours, these plates were divided into 3 groups—Control group, 2 h treatment group and 3 day treatment group. In the 2 h treatment group, after 2 h the cells were rinsed to remove the test compound and incubated for 3 days, followed by staining with AlamarBlue. The cells in the 3 day treatment group were incubated for 3 days, followed by staining with AlamarBlue. In the Control group, AlamarBlue was added to the plate at (i) day 0 and (ii) day 3 and measured to establish the control reading.

CD-1 mice = test: Tolerance study in CD-1 mice; assay type: in vivo, mouse
Excerpt: The toxicological end-points in this study were standard clinical observations such as changes in movement, breathing, food consumption, mortality and decreased body weight.

mouse prostate cells = test: In vivo viability and proliferation of mouse prostate cells (TUNEL, PCNA); details: mice treated with 20 mg/kg, with respect to vehicle
Description: Prostate cells harvested from mice treated with 20 mg/kg of Compound I were assayed by the TUNEL assay (e.g., see Example 48).

PWR-1E cells = test: BrdU-TUNEL apoptosis assay; assay type: cell-based; details: for % Non-apoptotic cells / % apoptotic cells: PWR-1E cells, 24 h
Description: The effect of compound 1 (as described in Example 1 above) on apoptosis was determined as follows. PWR-1E cells (2×10^5 cells/ml/well) were seeded in a 24 well plate. The culture media were removed after 24 h, the cells were rinsed with PBS buffer (200 μL) and incubated (5 min, 37° C.) with a solution of Guava Viacount CDR in PBS (1:3 v/v). Media (750 μL) containing at least 5% FBS was added to each well, the cells released by repeated pipeting, centrifuged, and the supernatant aspirated. The cells were resuspended in PBS buffer (150 μL) and fixed by incubating (60 min, 4° C.) with 4% paraformaldehyde in PBS. The cells were centrifuged, and the supernatant removed to a final volume of 15 μL. The cell pellets were resuspended, followed by dropwise addition of 200 μl of ice-cold ethanol (70%), and the cells incubated at −20° C. at least for 2 hr. The cells were centrifuged, the supernatant removed, washed, and incubated with the DNA labeling mix (37° C., 60 min). The cells were washed, incubated (30 min) with anti-BrdU staining mix, washed again and analyzed on a Guava PCA-96 system (Guava Technologies, 25801 Industrial Boulevard, Hayward Calif. 94545-2991, USA).

Compound: O=C(NO)c1nn(Cc2ccc(Cl)cc2Cl)c2ccccc12 [Compound 1]
- absolute left testis weight (FIG. 13) (left and right testis): dose dependent reduction
- absolute right testis weight (FIG. 12) (left and right testis): dose dependent reduction
- relative left testis weight (FIG. 5) (left and right testis): dose dependent reduction
- relative right testis weight (FIG. 4) (left and right testis): dose dependent reduction
- IC50 (PC3 cells): 15 µM
- GI50 (H460 cells; 3 day treatment, read-out: GI50 H460 cell 3 days): 15.8 µM
- GI50 (H460 cells; read-out: GI50 H460 cell 2 hr, 2 h treatment then 3 days incubation): 50 µM
- tolerated dose (CD-1 mice; CD-1 mice, oral dosing for 5 days): 500 mg/kg/day
- therapeutic index compared to lonidamine (CD-1 mice; mice, when used for prostate weight reduction): 10 fold
- apoptosis of prostate cells (TUNEL assay) (mouse prostate cells): more apoptotic
- cell cycle inhibition (PCNA assay) (mouse prostate cells): greater cell cycle inhibition
- apoptosis in PWR1E cells (PWR-1E cells; PWR1E cells): induces apoptosis
- % Non-apoptotic cells (PWR-1E cells; 3.1 μM): 90%
- % apoptotic cells (PWR-1E cells; 3.1 μM): 10%
- % Non-apoptotic cells (PWR-1E cells; 6.2 μM): 88%
- % apoptotic cells (PWR-1E cells; 6.2 μM): 12%
- % Non-apoptotic cells (PWR-1E cells; 12.5 μM): 78%
- % apoptotic cells (PWR-1E cells; 12.5 μM): 22%
- % Non-apoptotic cells (PWR-1E cells; 25 μM): 48%
- % apoptotic cells (PWR-1E cells; 25 μM): 52%

Source: patent publication US20070015771A1, “Lonidamine analogs” (Threshold pharmaceuticals, Inc., priority 2004, published 2007)
